Data from ChEMBL document CHEMBL1133870, “Two novel cytotoxic and antimicrobial triterpenoids from Pseudolarix kaempferi” (Bioorg Med Chem Lett, 2001).
≈ marks a conversion by molar mass, not a printed value.

How the values were obtained:
[1] = test system: A549; assay: Compound was tested for its cytotoxicity against A 549 cell line; type: functional, cell-based; conditions: Homo sapiens
[2] = test system: P388; assay: Compound was tested for its cytotoxicity against P388 cell line; type: functional, cell-based; conditions: Mus musculus
[3] = test system: Micrococcus luteus; assay: Compound was tested for minimum inhibitory concentration against Micrococcus luteus ATCC 9341; type: functional
[4] = test system: Pseudomonas aeruginosa; assay: Compound was tested for minimum inhibitory concentration against Pseudomonas aeruginosa […]; type: functional
[5] = test system: Escherichia coli; assay: Compound was tested for minimum inhibitory concentration against Escherichia coli […]; type: functional
[6] = test system: Staphylococcus aureus; assay: Compound was tested for minimum inhibitory concentration against Staphylococcus aureus ATCC 25923; type: functional

Row | MIC [3] [µM] | MIC [4] [µM] | MIC [5] [µM] | MIC [6] [µM] | Structure (SMILES) | IC50 [1] [µM] | IC50 [2] [µM]
1 | – | – | – | – | C[C@H](CC(=O)O)[C@]1(C)CC=C2C3=CCC4C(C)(C)[C@H](O)CC[C@]4(C)[C@@H]3CC[C@]21C (stereo partly specified) | 60 | 55
2 | 13 (≈ 6.07 µg/mL) | > 215 | 107 (≈ 49.9 µg/mL) | 27 (≈ 12.6 µg/mL) | C[C@H](Cc1cc(C(=O)O)co1)[C@]1(C)CC=C2C3=CCC4C(C)(C)[C@H](O)CC[C@]4(C)[C@@H]3CC[C@]21C (stereo partly specified) | 54 | 50
3 | 10 (≈ 2.56 µg/mL) | > 780 | > 780 | 19 (≈ 4.87 µg/mL) | C=C[C@@](C)(/C=C/c1ccc(O)cc1)CCC=C(C)C [BAKUCHIOL] | – | –
4 | 48 (≈ 12.8 µg/mL) | > 750 | > 750 | 48 (≈ 12.8 µg/mL) | C=CCc1ccc(O)c(-c2cc(CC=C)ccc2O)c1 [MAGNOLOL] | – | –
